Like-named read-outs stand apart in the source and are kept apart here.
Key:
[1] = system: A2780 ovarian cancer cells; assay: Alamar Blue cell proliferation assay, A2780; type: cell-based, human; conditions: 4-day incubation; for IC50: Homo sapiens, A2780, 96 h, read-out: A2780 cell proliferation inhibition pIC50 (converted)
Protocol: The human A2780 ovarian cancer cells were a kind gift from Dr. T. C. Hamilton (Fox Chase Cancer Centre, Pennsylvania, U.S.A.). The cells were cultured in RPMI 1640 medium supplemented with 2 mM L-Glutamine, 50 μg/ml gentamicin and 10% fetal calf serum.
Potassium Phosphate Buffer 0.1 M (PPB) was made as follows: 2.72 gram KH2PO4 and 13.86 gram K2HPO4 were dissolved in 500 ml milli-Q H2O, the pH was adjusted to pH 7.4 and the volume was brought to 1 liter with milli-Q H2O; the buffer was filter sterilised and stored at room temperature. Resazurin stock solution (PPB-A) was prepared fresh by dissolving 45 mg resazurin in 15 ml PBS. 30 mM potassium ferricyanide (PPB-B) was prepared by dissolving 0.987 gram potassium ferricyanide in 100 ml PPB. 30 mM potassium ferrocyanide (PPB-C) was prepared by dissolving 1.266 gram potassium ferrocyanide in 100 ml PPB.
Mixture of PPB-A, PPB-B and PPB-C was prepared by mixing equal volumes of the respective solutions. Resazurin work solution (herein termed “Alamar Blue” solution) was prepared by diluting said mixture 20×(vol/vol) in PPB and filter sterilising; the Alamar Blue solution could be kept at 4° C. for a maximum of 2 weeks.
(§1) For experiments in 384 wells plates the cells were seeded at a density of 5×10^3 cells/ml in Falcon 384-well culture plates (Life Technologies, Merelbeke, Belgium), black with clear bottom, in 45 μl culture medium. Cells were allowed to adhere to plastic for 24 hr. The tested compound was pre-diluted (1/50 in culture medium) and 5 μl pre-diluted compound was added to the wells. Following 4-day incubation, 10 μl of the Alamar Blue solution was added to each well and the cells were further incubated for 5 hrs (A2780) at 37° C. The fluorescence intensity was measured for each well with a Fluorescence plate reader (Fluorskan, Labsystems, 540 nm excitation and 590 nm emission)
(§2) The antiproliferative activity was calculated as percentage of remaining viable cells in treated versus control (untreated cells) conditions. Within an experiment, the result for each experimental condition is the mean of 3 replicate wells. When appropriate, the experiments were repeated to establish full concentration-response curves. When appropriate, IC50-values (concentration of the drug, needed to reduce cell growth to 50% of the control) were computed using probit analysis for graded data (Finney, D. J., Probit Analyses, 2nd Ed. Chapter 10, Graded Responses, Cambridge University Press, Cambridge 1962). Herein the effects of test compounds are expressed as pIC50 (the negative log value of the IC50-value (M)) (see Table 5A).

[2] = system: non-small cell lung cancer cell line H1299; assay: Alamar Blue cell proliferation assay, H1299; type: cell-based; conditions: for H1299 cell proliferation inhibition pIC50: H1299 cells; for IC50: Homo sapiens, NCI-H1299, H1299 cells, read-out: H1299 cell proliferation inhibition pIC50 (converted)
Protocol: as §1, §2
Compounds were also tested according to the above protocol but using other cell lines: colorectal cancer cell line HCT116, non-small cell lung cancer cell line H1299, human prostate cancer cell line DU145.

[3] = system: human U87 glioma tumor; assay: In vivo anti tumour effects, U87 glioma xenograft; conditions: U87 xenograft in NMRI Nude mice, 20 mg/kg p.o. QD for 5 days; for response vs control in vivo at 20 mg/kg: Mus musculus, U-87 MG, po
Protocol: Immuno-deficient (athymic) male NMRI Nude (Nu/Nu) mice (20-25 g obtained from Janvier, France) were used for these studies. Initial weight was approximately […]. All animals were maintained under SPF “full barrier” conditions with free access to food and water. Mice were group housed under a 12-h light:dark cycle (lights on at 06:00 h) at a temperature of 19 to 22° C. and 35 to 40% humidity in Techniplast type-3 IVC cages. Mice were fed a standard Laboratory chow. All experiments were carried out in accordance with the European Communities Council Directives (86/609/EEC) and had to be approved by the local ethical committee. For an established tumor xenograft model (tumor volume ˜200 mm^3), mice were randomized according to tumor volumes, with 5 mice per treatment group.
The human U87 glioma tumor cell line was derived from a patient. Cells were cultured at 37° C. in a humidified atmosphere (5% CO2, 95% air), in DMEM medium supplemented with 2 mM L-glutamine, 2.0 mM sodium pyruvate, 25 units/ml penicillin/25 μg/ml streptomycin and 10% fetal bovine serum. Cells were maintained as cell monolayer cultures, being passaged twice weekly at 3×10^6 cells per T175 flask using the following procedure. Briefly cells were washed with PBS (without Mg^2+, Ca^2+), before addition of trypsin-EDTA to the culture flasks. After detachment of cells the trypsin-EDTA was inactivated by addition of complete medium. Cell suspension was then transferred to 50 ml Falcon tube and centrifuged for 3 min at 1200 rpm. Medium was aspirated, with the cells being re-suspended in an appropriate volume of complete medium. The cells were counted in a haemocytometer and their viability was assessed by 0.25% trypan blue exclusion. An appropriate volume of cell suspension was then added to either a new T175 culture flask(s) or roller bottle containing fresh medium. For large scale-up growth of U87 tumor cells, an appropriate number of roller bottles were seeded with 0.5 to 1×10^7 cells 1 week prior to inoculation of mice. The medium was changed twice during this period, with the last change being the day prior to cell injection. Cells were collected as described above, with the exception that after centrifugation, the cells were re-suspended in cold (4° C.) serum-free medium. Mice were injected in the inguinal region with 1×10^7 cells total in a 200 μl volume.
Human U87 glioma cells were injected directly into the inguinal region of the male NMRI Nude mice (1×10^7 cells/200 μl/animal) on day 0 (D0). On day 7-10 (can vary due to tumor take/growth between cell batches) when tumor volume had reached an approximate average of 200 mm^3, mice were randomized according to tumor volume, with 5 mice per treatment group. Mice were then treated once daily (QD) with either vehicle (10% HP-β-CD) or vehicle containing test compound (20 mg/kg) by gavage (p.o.) administered in a volume of 10 ml/kg body weight for 5 days. Specific tumor measurements were taken on day 6 (24 hours post 5th dose) and then again on day 10. Tumor re-growth (after dosing has stopped) was monitored so that the time-to-reach a volume of 2000 mm^3 (TTR2000) can be recorded. This gives extra information on the duration of drug action on the tumor growth. In general, tumor size and body weights were measured twice weekly, with mice monitored daily for clinical signs of toxicity for the duration of the treatment. Clinical signs of toxicity included (but not limited to), persistent anorexia or dehydration, posture, moribund, lethargy, hypothermia and/or laboured respiration (according to the UKCCCR guidelines for welfare of animals in experimental neoplasia (The UKCCCR (UK Coordinating Committee on Cancer Research) guidelines for the welfare of animals in experimental neoplasia (July 1997); and Workman, P. et al. UKCCCR guideline. Br. J. Cancer. 1998, 77: 1-10). […]

[4] = day 6 after start dosing, 20 mg/kg
[5] = day 10 after start dosing, 20 mg/kg
[6] = 144 h, day 6 after start dosing, read-out: % T/C day 6
[7] = 240 h, day 10 after start dosing, read-out: % T/C day 10

SMILES | A2780 cell proliferation inhibition pIC50 [1] | H1299 cell proliferation inhibition pIC50 [2] | % T/C day 6 [3, 4] [%] | % T/C day 10 [3, 5] [%] | % T/C day 6 ([3]; day 6 after start dosing) [%] | % T/C day 10 ([3]; day 10 after start dosing) [%] | IC50 [1] [nM] | IC50 [2] [nM] | response vs control in vivo at 20 mg/kg [3, 6] [%] | response vs control in vivo at 20 mg/kg [3, 7] [%]
Cc1cc(Nc2ccnc3c2CCC3O)ccc1NCCc1c[nH]c2c(C(C)O)cccc12 (single isomer, unassigned) [Compound 12] | 7.20 | 5.2 | 64 | 71 | – | – | – | – | – | –
Cc1cc(Nc2ccnc3c2CCC3O)ccc1NCCc1c[nH]c2c(C(C)O)cccc12 (single isomer, unassigned) [Compound 15] | 7.27 | 5.82 | 53 | 88 | – | – | – | – | – | –
Cc1cc(Nc2ccnc3c2CCC3O)ccc1NCCc1c[nH]c2c(CCO)cccc12 (single isomer, unassigned) [Compound 23] | 6.52 | 5.61 | – | – | 72 | 95 | – | – | – | –
COC1CCc2c(Nc3ccc(NCCc4c[nH]c5c(C(C)(C)O)cccc45)cc3)ccnc21 (single isomer, unassigned) [Compound 24] | – | – | 60 | 1 | – | – | 66.1 | 234 | – | –
COC1CCc2c(Nc3ccc(NCCc4c[nH]c5c(C(C)(C)O)cccc45)cc3)ccnc21 (single isomer, unassigned) [Compound 25] | – | – | 330 | −3 | – | – | – | – | – | –
Cc1cc(Nc2ccnc3c2CCC3(C)O)ccc1NCCc1c[nH]c2c(C(C)(C)O)cccc12 (single isomer, unassigned) [Compound 26] | 7.11 | 6.27 | 354 | −11 | – | – | – | – | – | –
Cc1cc(Nc2ccnc3c2CCC3(C)O)ccc1NCCc1c[nH]c2c(C(C)(C)O)cccc12 (single isomer, unassigned) [Compound 27] | – | – | 193 | 22 | – | – | 141 | 1020 | – | –
COC1CCc2c(Nc3ccc(NCCc4c[nH]c5c(C(C)(C)O)cccc45)c(C)c3)ccnc21 (single isomer, unassigned) [Compound 28] | 6.89 | 6.73 | −280 | −10 | – | – | – | – | – | –
COC1CCc2c(Nc3ccc(NCCc4c[nH]c5c(C(C)(C)O)cccc45)c(C)c3)ccnc21 (single isomer, unassigned) [Compound 29] | 7.14 | 6.67 | −196 | −13 | – | – | – | – | – | –
CC(C)(O)c1cccc2c(CCNc3ccc(Nc4ccnc5c4CCC5(C)O)cc3)c[nH]c12 (single isomer, unassigned) [Compound 30] | 7.04 | 6.02 | −61 | −10 | – | – | – | – | – | –
CC(C)(O)c1cccc2c(CCNc3ccc(Nc4ccnc5c4CCC5(C)O)cc3)c[nH]c12 (single isomer, unassigned) [Compound 31] | 6.84 | 5.84 | 179 | 1 | – | – | – | – | – | –
Cc1cc(Nc2ccnc3c2CCC3(C)O)ccc1NCCc1c[nH]c2c(C(C)(C)O)cccc12 (centres unmarked) [Compound 1] | – | – | – | – | – | – | 115 | 871 | 17 | 8
Cc1cc(Nc2ccncc2)ccc1NCCc1c[nH]c2c(C(C)(C)O)cccc12 [Compound 2] | – | – | – | – | – | – | 41.7 | 1150 | 14 | -0.23
Cc1cc(Nc2ccnc3c2CCC3=O)ccc1NCCc1c[nH]c2c(C(C)O)cccc12 (centres unmarked) [Compound 4] | – | – | – | – | – | – | 182 | 3720 | 77 | 129
Cc1cc(Nc2ccnc(CO)c2)ccc1NCCc1c[nH]c2c(C(C)O)cccc12 (centres unmarked) [Compound 5] | – | – | – | – | – | – | 52.5 | 5890 | 103 | 67
OCc1cccc2c(CCNc3ccc(Nc4ccnc5c4CCC5O)cc3)c[nH]c12 (centres unmarked) [Compound 6] | – | – | – | – | – | – | 214 | 9330 | 105 | 99
C=C(C)c1cccc2c(CCNc3ccc(Nc4ccnc5c4CCC5OC)cc3)c[nH]c12 (centres unmarked) [Compound 7] | – | – | – | – | – | – | 110 | 407 | – | –
Cc1cc(Nc2ccnc3c2CCC3O)ccc1NCCc1c[nH]c2c(CCC(C)O)cccc12 (centres unmarked) [Compound 9] | – | – | – | – | – | – | 141 | 6760 | 145 | 113
Cc1cc(Nc2ccnc3c2CCC3(C)O)ccc1NCCc1c[nH]c2c(C(C)O)cccc12 (centres unmarked) [Compound 10] | 6.70 | 5.68 | – | – | 96 | 71 | – | – | – | –
Cc1cc(Nc2ccnc3c2CCC3O)ccc1NCCc1c[nH]c2c(C(C)(C)O)cccc12 (centres unmarked) [Compound 20] | – | 5.72 | – | – | – | – | 51.3 | – | – | –

From US8541442B2, “Indole derivatives as anticancer agents” (Janssen Pharmaceutica N.V., priority 2009, dated 2013)
